Measured values reported in US20070154449A1, “TIGHT JUNCTION MODULATING PEPTIDES FOR ENHANCED MUCOSAL DELIVERY OF THERAPEUTIC COMPOUNDS” (Nastech Pharmaceutical Company Inc., priority 2005, published 2007).

Tests used:
[1] = test system: human-derived tracheal/bronchial epithelial cells (EpiAirway™ Tissue model system); assay: Transepithelial electrical resistance (TER), EpiAirway tissue model; format: cell-based
Method: EpiAirway™ culture membranes were received the day before the experiments started. They are shipped in phenol red-free and hydrocortisone-free Dulbecco's Modified Eagle's Medium (DMEM). The cells are ciliated and psudostratefied, grown to confluency on Millipore Multiscreen Caco-2 96-well assay system comprised of a polycarbonate filter system. Upon receipt, the insert system will be stored unopened at 4° C. and/or cultured in 250 μl basal media per well (phenol red-free and hydrocortisone-free Dulbecco's Modified Eagle's Medium (DMEM)) at 37° C./5% CO2 for 24 hours before use.
TER measurements were taken using the REMS Autosampler (World Precision Instruments, Sarasota, Fla.) with the electrode leads. The electrodes and a tissue culture blank insert will be equilibrated for at least 20 minutes in MatTek Air-100™ medium with the power off prior to checking calibration. The background resistance of the insert system has been established by multiple measurements of a blank insert plate and the same value was used for each test on the platform. Time zero TER (TER0) was measured before incubation of the inserts with the test formulation. The top electrode will be as adjusted so that it is close to, but not making contact with, the top surface of the insert membrane. Background resistance of the blank insert should be about 5-20 ohms. For each TER determination, 100 μl of MatTek Air-100™ medium was added to the insert and 250 μl in the basal well followed by placement in the Endohm chamber. All TER values are reported as a function of the surface area of the tissue. Resistance was expressed as both Ohms*cm^2 and percent original TER value.
TER values were calculated as: [formula] [formula] Formula terms for TER calculation defined: […]
A decrease in TER value relative to the control value indicates a decrease in cell membrane resistance and an increase in mucosal epithelial cell permeability.
(§1) Of the total 300 μl volume for each test formulation, only a 20 μl sample was applied to the human-derived tracheal/bronchial epithelial cells (EpiAirway™ Tissue model system) in order to assess the effect each test formulation had on TER, LDH and sample permeation.

[2] = test system: human-derived tracheal/bronchial epithelial cells (EpiAirway™ Tissue model system); assay: FITC-Dextran (FD3) permeation assay, EpiAirway tissue model; format: cell-based; conditions: 25 μM peptide, 1 h at 37° C.
Method: A FITC labeled dextran with a molecular weight 3000 (FD3) was used to assess the efficacy of individual TJMP on epithelial cell monolayer permeation. The tissue insert plates were transferred to a 96-well receiver plate containing 200 μl of DPBS++ as basal media. The apical surface of each tissue culture insert was incubated with a 20 μl sample of a single test formulation (refer to Table 4 in Example 2 for details of test formulations) for one hour at 37° C. in the dark on a shaker (˜100 rpm). Following the 1 hour incubation period, underlying basal media samples were taken from each tissue culture insert and temporarily stored in the dark at room temperature until FD3 levels were quantified by fluorescence spectroscopy. For FD3 measurements, a 150 μl of basal media sample was transferred to a black, clear bottom 96-well plate. Fluorescence emission at 528/20 following excitation at 485/20 were measured using a FLx800 fluorescence plate reader from Biotek Instruments.
Permeation was calculated as: [formula] [formula] Formula terms for permeation defined: […]
as §1

[3] = Chemical stability of PN159 in solution (stability indicating HPLC); format: physicochemical; conditions: for loss of native PN159: 25° C.
Method: The chemical stability of the PN159 was determined under therapeutically relevant storage conditions. A stability indicating HPLC method was employed. Solutions (50 mM) were stored at various pH (4.0, 7.3, and 9.0) and temperature (5° C., 25° C., 35° C., 40° C., and 50° C.) conditions. Samples at pH 4 contained 10 mM citrate buffer. Samples at pH 7.3 and 9.0 contained 10 mM phosphate buffer. […] For example, at 5° C. and pH 4.0 or pH 7.3, there was essentially 100% recovery of PN159 for six month storage. […] The pH range of 4.0 to 7.3 and the temperature range of refrigerated to ambient are most relevant for intranasal formulations.

SMILES: CC(C)C[C@H](NC(=O)[C@H](C)NC(=O)[C@H](CCCCN)NC(=O)[C@H](CC(C)C)NC(=O)[C@H](C)NC(=O)[C@H](CC(C)C)NC(=O)[C@H](CCCCN)NC(=O)[C@H](CC(C)C)NC(=O)[C@H](C)NC(=O)[C@H](CC(C)C)NC(=O)[C@@H](N)CCCCN)C(=O)N[C@@H](CCCCN)C(=O)N[C@@H](C)C(=O)N[C@@H](C)C(=O)N[C@@H](CC(C)C)C(=O)N[C@@H](CCCCN)C(=O)N[C@@H](CC(C)C)C(=O)N[C@@H](C)C(N)=O [PN159]
- % T0 TER ([1]; 25 μM peptide, pH 7, 20 μl applied): 7%
- TER in the presence of galantamine ([1]; 25, 50, 100 μM PN159 with 40 mg/ml galantamine lactate, pH 5.0): reduced TER
- % FD3 Permeation [2]: 8%
- loss of native PN159 ([3]; pH 4, after six months): 7%
- loss of native PN159 ([3]; pH 7, after six months): 26%
- chemical stability of PN159 ([3]; pH 9 and/or elevated temperature, e.g., 40 to 50° C.): rapid deterioration
